Test results taken from patent publication US9006431B2, “Crystalline form of pemirolast” (Cardoz AB, priority 2009, dated 2015).

Key:
[1] = Aqueous solubility (shake 24 hours, HPLC of filtrate); type: physicochemical; details: doubly distilled water, 22° C.
Experimental: About 40 mg of a sample (obtained by way of the procedure described in Example 2 above) was dispersed in 0.25 mL of doubly distilled water. The suspension was shaken at 22° C. for 24 hours. Afterwards, a fast solid/liquid-separation was performed using an Eppendorf Thermomixer Comfort (400 rpm). The suspensions were filtered with Millipore Centrifugal Filter Devices (PTFE filter; 0.2 μm) in a Centrifuge Hettich EBA 12 R (15,000 g, 1 minute, 22° C.). The concentration of the sample in the filtrate was analyzed by HPLC, and the solid phase was analyzed by FT-Raman spectroscopy.

[2] = Dynamic Vapor Sorption (DVS) hygroscopicity classification; type: physicochemical; details: for relative humidity above which significant water uptake starts: DVS; for hygroscopicity class by DVS analysis: mass change at 85% RH compared to the starting material
Experimental: HPLC was performed on a TSP HPLC (UV3000, AS3000, P4000, SCM1000 Soft. Version 4.1); column: Waters, X Terra MS C18 4.6×100 mm, 5μ (CC01); mobile phase A: H2O+0.1% TFA; mobile phase B: acetonitrile+0.1% TFA; reference concentration: ca. 0.09 mg/mL; retention time: 6.6 minutes; gradient: 0.0 min: A:95%/B:5%; 20.0 min: A:5%/B:95%; 21.0 min: A:95%/B:5%; 30.0 min: A:95%/B:5%; flow: 1.0 mL/minute; injection volume: 10 μL; wavelength: 254 nm. Dynamic Vapor Sorption (DVS) measurements were carried out on a Sorption Measurement System SPS11-100n. The sample was placed in an aluminum crucible and the sample was allowed to equilibrate at a given RH before starting a pre-defined humidity program. (1) 2 h at 50% RH; (2) 50→0% RH (5%/h); (3) 5 h at 0% RH; (4) 0→95% RH (5%/h); (5) 5 h at 95% RH; (6) 95→50% RH (5%/h); (7) 2 h at 50% RH. Hygroscopicity was classified according to the European Pharmacopoeia (storage at 80% RH/25° C. for 24 hours). The mass change at 85% RH was used for classification, as compared to the starting material (at ambient conditions)—very hygroscopic: increase of mass ≧15%; hygroscopic: increase of mass is less than 15% and equal to or greater than 2%; slightly hygroscopic: increase of mass is less than 2% and equal to or greater than 0.2%; deliquescent: sufficient water is absorbed to form a liquid.

[3] = Stability study at different moisture levels and temperatures (appearance, Karl Fischer, PXRD); type: physicochemical
Experimental: To determine the relative stability of pemirolast sodium obtained in accordance with the method described in Example 10 (hemihydrate), Example 11 (heptahydrate) and Example 5 (amorphous form) at different moisture levels, a stability study was performed.
The study was performed under four different storage conditions with different moisture levels and temperatures, 40° C./75% RH, 25° C./60% RH, room temperature/10-20% RH, and room temperature/>90% RH. The substances were stored open in glass beakers and samples were withdrawn periodically for analysis (time zero, 1 week and 4 weeks).
At the time intervals mentioned, the visual appearance was inspected by (a) placing a spatula of substance on a white background, munktell filter (no smearing or crushing of the substances was performed), and (b) by microscopy equipped with plane polarized light. The water content was also analysed using Karl Fischer titration. PXRD was conducted at time zero and at 4 weeks.

[4] = In vitro dissolution study (Ph. Eur. Apparatus 2, paddle); type: physicochemical; details: 30 mg, 50 mM phosphate buffer pH 6.8, 50 rpm, 37° C.
Experimental: An in vitro dissolution study was performed on pemirolast potassium (obtained Chemtronica AB, Stockholm, Sweden) and pemirolast sodium hemihydrate (prepared in accordance with the method described in Example 10 above) using standard Ph. Eur. Methodology (Apparatus 2 (paddle), Ph. Eur., 2.9.3, using 50 mM phosphate buffer pH 6.8 as a dissolution medium. A stirring rate of 50 rpm was employed. The temperature was 37° C.). Tests were performed in triplicate. 30 mg of each substance was added to separate vessels and the timer started. Sampling was at regular intervals using a 1 mL plastic syringe, depending on how quickly the substance appeared to dissolve (by visual inspection). The sample was filtered into HPLC vials using a small diameter filter. The samples were analysed by reversed phase HPLC. Quantification of pemirolast was performed by means of UV detection.

[5] = PXRD of 30 mg tablets after tabletting; type: physicochemical; details: crushed and intact
Experimental: For all tablets, friability and crushing resistance tests were conducted according to standard methodology (Ph. Eur. 6.0, 2.9.7 and 2.9.8, respectively, with the exception that the crushing resistance results are presented in kp rather than N according to the Ph. Eur.). PXRD was also performed on the 30 mg tablets after tabletting on both crushed and intact tablets. In view of the endotherms observed (and reported in Example 11 above) by DSC for the heptahydrate, it was expected that this may limit the ability of that polymorph to form tablets by compression (given that internal temperatures of 70° C. can easily be reached during the compression process). It was therefore decided to analyse the 30 mg tablets by PXRD as stated above.

[6] = cited from earlier work
[7] = humans; cited from earlier work
[8] = test system: plasma tryptase; assay: Plasma tryptase levels in subjects with CRP above 0.9 mg/L; type: in vivo
[9] = Storage under ambient conditions followed by FT-Raman; type: physicochemical; details: about a month
Experimental: FT-Raman spectra were recorded on a Bruker RFS 100 FT-Raman system with a near infrared Nd:YAG laser operating at 1064 nm and a liquid nitrogen-cooled germanium detector. 64 scans with a resolution of 2 cm^−1 were accumulated in the range from 3500 to 50 cm^−1. In general, 100 mW laser power was used.
The Raman spectrum was recorded directly after recrystallisation. All samples were then stored under ambient conditions on a shelf in a fume hood. […] This is shown in FIG. 4, where the lower spectrum accords to the earlier measurement and the upper spectrum accords to the later measurement.

[10] = listed as Example 2, Sodium Hemihydrate
[11] = listed as Example 1, Sodium Hemihydrate
[12] = listed as potassium salt of pemirolast

Cc1cccn2c(=O)c(-c3nnn[nH]3)cnc12 [pemirolast sodium hemihydrate, Pemirolast Sodium Hemihydrate]
aqueous solubility [1, 10]: 23.64 mg/mL
pH of the saturated solution [1, 10]: 8.0
relative humidity above which significant water uptake starts [2, 11]: above 80 % RH
hygroscopicity class by DVS analysis [2, 11]: hygroscopic (hygroscopic: increase of mass is less than 15% and equal to or greater than 2%)
solid phase stability ([3]; 75% RH and above): converted to a previously unknown solid state form
solid phase stability ([3]; relative humidity of 60% and less (down to 10-20% RH), up to 4 weeks): stable
water content (Karl Fischer) on storage, unchanged ([3]; relative humidity of 60% and less, up to 4 weeks): 2.8%
dissolution behaviour ([4]; listed as sodium hemihydrate salt, Sodium Hemihydrate): formed large aggregates and appeared to be more difficult to dissolve
phase transitions during tabletting (PXRD) [5]: no phase transitions occurred

Cc1cccn2c(=O)c(-c3nnn[nH]3)cnc12 [pemirolast potassium, reference compound]
aqueous solubility [1, 12]: 192.38 mg/mL
pH of the saturated solution [1, 12]: 9.0
relative humidity above which significant water uptake starts [2]: above 70 % RH
hygroscopicity class by DVS analysis [2]: very hygroscopic (very hygroscopic: increase of mass ≧15%)
hygroscopicity (reported) ([6]; Pharmaceutical Interview Form): hygroscopic
aqueous solubility (reported) ([6]; source: Pharmaceutical Interview Form): 179 to 182 mg/mL
dissolution behaviour ([4]; listed as potassium salt): dissolved as soon as it was added to the dissolution medium
plasma concentration profile [7]: sharp plasma concentration peaks

Cc1cccn2c(=O)c(-c3nn[n-]n3)cnc12.O.O.O.O.O.O.O.[Na+] [pemirolast sodium heptahydrate, Pemirolast Sodium Heptahydrate]
solid phase stability ([3]; 60% RH, up to 4 weeks): stable
solid phase stability ([3]; 75% RH): converted partially to the new solid state form
solid phase stability ([3]; 90% RH): no signs of phase transitions were observed
solid phase stability ([3]; dry conditions (10-20% RH)): converted to the hemihydrate form
phase transitions during tabletting (PXRD) [5]: no phase transitions occurred

Cc1cccn2c(=O)c(-c3nnn[nH]3)cnc12 [pemirolast, 9-Methyl-3-(1H-tetrazol-5-yl)-4H-pyrido[1,2-a]pyrimidin-4-one]
effect on plasma tryptase levels [8]: does not concomitantly reduce plasma tryptase levels

Cc1cccn2c(=O)c(-c3nnn[n-]3)cnc12.[Na+] [amorphous form of pemirolast sodium, reference compound]
physical stability (Raman spectrum changed) [9]: physically unstable
solid phase stability ([3]; 60% RH and above): crystallized
solid phase stability ([3]; dry conditions (10-20% RH)): remains amorphous
